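Growth conditions: 96-well plates. Treatment: test compound, 48 hours, 5 concentrations. Analysis: linear interpolation between bracketing concentrations; unreached endpoints set to highest concentration. GI50 marks 50% less growth.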 The source made the active and inactive calls. Rule as the data show it: active = GI50 up to about 1.1 µM and inactive = higher.
Legend:
Assay in all cases: NCI tumour cell line growth inhibition, 48 h
[1] = tested on: 786-0
[2] = tested on: A498
[3] = tested on: A549
[4] = tested on: ACHN
[5] = tested on: BT-549
[6] = tested on: CAKI-1
[7] = tested on: CCRF-CEM
[8] = tested on: COLO 205
[9] = tested on: DU-145
[10] = tested on: EKVX
[11] = tested on: HCC 2998
[12] = tested on: HCT-116
[13] = tested on: HCT-15
[14] = tested on: HL-60
[15] = tested on: HOP-62
[16] = tested on: HOP-92
[17] = tested on: HT-29
[18] = tested on: Hs-578T
[19] = tested on: IGROV-1
[20] = tested on: K562
[21] = tested on: KM12
[22] = tested on: M14
[23] = tested on: MCF7
[24] = tested on: MDA-MB-231
[25] = tested on: MDA-MB-435
[26] = tested on: MDA-N
[27] = tested on: MOLT-4
[28] = tested on: Malme-3M
[29] = tested on: NCI-H226
[30] = tested on: NCI-H23
[31] = tested on: NCI-H460
[32] = tested on: NCI-H522
[33] = tested on: NCI/ADR-RES
[34] = tested on: OVCAR-3
[35] = tested on: OVCAR-4
[36] = tested on: OVCAR-5
[37] = tested on: OVCAR-8
[38] = tested on: PC-3
[39] = tested on: RPMI-8226
[40] = tested on: RXF 393
[41] = tested on: SF-268
[42] = tested on: SF-295
[43] = tested on: SF-539
[44] = tested on: SK-MEL-28
[45] = tested on: SK-MEL-2
[46] = tested on: SK-MEL-5
[47] = tested on: SK-OV-3
[48] = tested on: SN12C
[49] = tested on: SNB-19
[50] = tested on: SNB-75
[51] = tested on: SR
[52] = tested on: T47D
[53] = tested on: TK-10
[54] = tested on: U-251
[55] = tested on: UACC-257
[56] = tested on: UACC-62
[57] = tested on: UO-31
[58] = tested on: LOX IMVI
[59] = tested on: SW-620

COc1cc2c(cc1Cc1c(F)cccc1Cl)nc(-c1c(F)cccc1Cl)n2Cc1c(F)cccc1Cl
GI50 [1]: 24.4 µM (inactive)
GI50 [2]: 27.3 µM (inactive)
GI50 [3]: 20.7 µM (inactive)
GI50 [4]: 31.8 µM (inactive)
GI50 [5]: 28.8 µM (inactive)
GI50 [6]: 6.07 µM (inactive)
GI50 [7]: 2.1 µM (inactive)
GI50 [8]: 44.8 µM (inactive)
GI50 [9]: 28.1 µM (inactive)
GI50 [10]: 12.6 µM (inactive)
GI50 [11]: 17.5 µM (inactive)
GI50 [12]: 20 µM (inactive)
GI50 [13]: 62.7 µM
GI50 [14]: 78.5 µM (inactive)
GI50 [15]: 36.1 µM (inactive)
GI50 [16]: 2.64 µM (inactive)
GI50 [17]: 16.5 µM (inactive)
GI50 [18]: 21.3 µM (inactive)
GI50 [19]: 32.4 µM (inactive)
GI50 [20]: 45.3 µM (inactive)
GI50 [21]: 28.4 µM (inactive)
GI50 [22]: > 100 µM (inactive)
GI50 [23]: 35.2 µM (inactive)
GI50 [24]: 31.8 µM (inactive)
GI50 [25]: 33.1 µM (inactive)
GI50 [26]: 20.6 µM (inactive)
GI50 [27]: 36 µM (inactive)
GI50 [28]: 20 µM (inactive)
GI50 [29]: 34 µM (inactive)
GI50 [30]: 19.8 µM (inactive)
GI50 [31]: 22.5 µM (inactive)
GI50 [32]: 16.1 µM (inactive)
GI50 [33]: 38.7 µM (inactive)
GI50 [34]: 11.6 µM (inactive)
GI50 [35]: 18.6 µM (inactive)
GI50 [36]: 48.8 µM (inactive)
GI50 [37]: 36.3 µM (inactive)
GI50 [38]: 10.7 µM (inactive)
GI50 [39]: 13.7 µM (inactive)
GI50 [40]: 77.3 µM (inactive)
GI50 [41]: 58.9 µM (inactive)
GI50 [42]: 14 µM (inactive)
GI50 [43]: 21 µM (inactive)
GI50 [44]: 65.6 µM (inactive)
GI50 [45]: 12.6 µM (inactive)
GI50 [46]: 13.5 µM (inactive)
GI50 [47]: 20.8 µM (inactive)
GI50 [48]: 20.9 µM (inactive)
GI50 [49]: 33.2 µM (inactive)
GI50 [50]: 24.7 µM (inactive)
GI50 [51]: 26.7 µM (inactive)
GI50 [52]: 10.2 µM (inactive)
GI50 [53]: > 100 µM (inactive)
GI50 [54]: 35.2 µM (inactive)
GI50 [55]: 22.5 µM (inactive)
GI50 [56]: 56.4 µM (inactive)
GI50 [57]: 48.4 µM (inactive)

CC(C)(C)OC(=O)NC1CCCCC1NC(=O)C(=O)NC1CCCCC1NC(=O)OC(C)(C)C (stereo unspecified)
GI50 [1]: 34.7 µM (inactive)
GI50 [2]: 32.7 µM (inactive)
GI50 [3]: > 100 µM (inactive)
GI50 [4]: 39.1 µM (inactive)
GI50 [5]: 53.5 µM (inactive)
GI50 [6]: 43 µM (inactive)
GI50 [7]: > 100 µM (inactive)
GI50 [8]: > 100 µM (inactive)
GI50 [9]: > 100 µM (inactive)
GI50 [10]: > 100 µM (inactive)
GI50 [11]: > 100 µM (inactive)
GI50 [12]: 78.2 µM (inactive)
GI50 [13]: > 100 µM
GI50 [14]: > 100 µM (inactive)
GI50 [15]: 19.3 µM (inactive)
GI50 [16]: 13.5 µM (inactive)
GI50 [17]: > 100 µM (inactive)
GI50 [18]: 16.9 µM (inactive)
GI50 [19]: > 100 µM (inactive)
GI50 [20]: > 100 µM (inactive)
GI50 [21]: > 100 µM (inactive)
GI50 [58]: > 100 µM (inactive)
GI50 [22]: > 100 µM (inactive)
GI50 [23]: > 100 µM (inactive)
GI50 [24]: 27.2 µM (inactive)
GI50 [25]: > 100 µM (inactive)
GI50 [26]: > 100 µM (inactive)
GI50 [27]: > 100 µM (inactive)
GI50 [28]: > 100 µM (inactive)
GI50 [29]: > 100 µM (inactive)
GI50 [30]: > 100 µM (inactive)
GI50 [31]: > 100 µM (inactive)
GI50 [32]: 66.5 µM (inactive)
GI50 [33]: > 100 µM (inactive)
GI50 [34]: > 100 µM (inactive)
GI50 [35]: > 100 µM (inactive)
GI50 [36]: > 100 µM (inactive)
GI50 [37]: > 100 µM (inactive)
GI50 [38]: > 100 µM (inactive)
GI50 [39]: > 100 µM (inactive)
GI50 [40]: 9.46 µM (inactive)
GI50 [41]: 37.2 µM (inactive)
GI50 [42]: 29.1 µM (inactive)
GI50 [43]: 45.4 µM (inactive)
GI50 [44]: > 100 µM (inactive)
GI50 [45]: 59 µM (inactive)
GI50 [46]: > 100 µM (inactive)
GI50 [47]: 44.2 µM (inactive)
GI50 [48]: > 100 µM (inactive)
GI50 [49]: 28.4 µM (inactive)
GI50 [51]: > 100 µM (inactive)
GI50 [59]: > 100 µM (inactive)
GI50 [52]: > 100 µM (inactive)
GI50 [53]: 37.6 µM (inactive)
GI50 [54]: 25.9 µM (inactive)
GI50 [55]: > 100 µM (inactive)
GI50 [56]: 24 µM (inactive)
GI50 [57]: > 100 µM (inactive)

O=[N+]([O-])/C(C(Cl)=C(Cl)Cl)=C(/Sc1ccccc1)N1CCOCC1
GI50 [1]: 2.28 µM (inactive)
GI50 [2]: 14.6 µM (inactive)
GI50 [3]: 18.6 µM (inactive)
GI50 [4]: 4.82 µM (inactive)
GI50 [5]: 4.76 µM (inactive)
GI50 [6]: 6.27 µM (inactive)
GI50 [7]: 1.83 µM (inactive)
GI50 [8]: 3.88 µM (inactive)
GI50 [9]: 12.6 µM (inactive)
GI50 [10]: 9.75 µM (inactive)
GI50 [11]: 15.3 µM (inactive)
GI50 [12]: 1.67 µM (inactive)
GI50 [13]: 3.45 µM
GI50 [14]: 1.99 µM (inactive)
GI50 [15]: 17.5 µM (inactive)
GI50 [16]: 2.34 µM (inactive)
GI50 [17]: 6.15 µM (inactive)
GI50 [18]: 15.6 µM (inactive)
GI50 [19]: 3.13 µM (inactive)
GI50 [20]: 1.74 µM (inactive)
GI50 [21]: 13.4 µM (inactive)
GI50 [58]: 1.53 µM (inactive)
GI50 [22]: 3 µM (inactive)
GI50 [23]: 2.57 µM (inactive)
GI50 [24]: 5.12 µM (inactive)
GI50 [25]: 2.59 µM (inactive)
GI50 [26]: 3.65 µM (inactive)
GI50 [27]: 2 µM (inactive)
GI50 [28]: 5.13 µM (inactive)
GI50 [29]: 11.4 µM (inactive)
GI50 [30]: 11.3 µM (inactive)
GI50 [31]: 5.05 µM (inactive)
GI50 [32]: 4.31 µM (inactive)
GI50 [33]: 6.28 µM (inactive)
GI50 [34]: 2.69 µM (inactive)
GI50 [35]: 11.6 µM (inactive)
GI50 [36]: 16.4 µM (inactive)
GI50 [37]: 1.89 µM (inactive)
GI50 [38]: 6.01 µM (inactive)
GI50 [39]: 2.62 µM (inactive)
GI50 [40]: 1.92 µM (inactive)
GI50 [41]: 4.46 µM (inactive)
GI50 [42]: 19.5 µM (inactive)
GI50 [43]: 6.03 µM (inactive)
GI50 [44]: 4.74 µM (inactive)
GI50 [45]: 5.14 µM (inactive)
GI50 [46]: 3 µM (inactive)
GI50 [47]: 34.8 µM (inactive)
GI50 [48]: 4.76 µM (inactive)
GI50 [49]: 6.75 µM (inactive)
GI50 [51]: 2.12 µM (inactive)
GI50 [59]: 2.26 µM (inactive)
GI50 [52]: 3.02 µM (inactive)
GI50 [53]: 6.68 µM (inactive)
GI50 [54]: 10.5 µM (inactive)
GI50 [55]: 9.91 µM (inactive)
GI50 [56]: 3.62 µM (inactive)
GI50 [57]: 4.67 µM (inactive)

CCCC1(N)CC(OC)OC(C)C1O (stereo unspecified)
GI50 [1]: > 100 µM (inactive)
GI50 [2]: > 100 µM (inactive)
GI50 [3]: > 100 µM (inactive)
GI50 [4]: > 100 µM (inactive)
GI50 [5]: > 100 µM (inactive)
GI50 [6]: > 100 µM (inactive)
GI50 [7]: > 100 µM (inactive)
GI50 [8]: > 100 µM (inactive)
GI50 [9]: > 100 µM (inactive)
GI50 [10]: > 100 µM (inactive)
GI50 [11]: > 100 µM (inactive)
GI50 [12]: > 100 µM (inactive)
GI50 [13]: > 100 µM
GI50 [14]: > 100 µM (inactive)
GI50 [15]: > 100 µM (inactive)
GI50 [16]: > 100 µM (inactive)
GI50 [17]: > 100 µM (inactive)
GI50 [18]: > 100 µM (inactive)
GI50 [19]: > 100 µM (inactive)
GI50 [20]: > 100 µM (inactive)
GI50 [21]: > 100 µM (inactive)
GI50 [58]: > 100 µM (inactive)
GI50 [22]: > 100 µM (inactive)
GI50 [23]: > 100 µM (inactive)
GI50 [24]: > 100 µM (inactive)
GI50 [25]: > 100 µM (inactive)
GI50 [26]: > 100 µM (inactive)
GI50 [27]: > 100 µM (inactive)
GI50 [28]: > 100 µM (inactive)
GI50 [29]: > 100 µM (inactive)
GI50 [30]: > 100 µM (inactive)
GI50 [31]: > 100 µM (inactive)
GI50 [32]: > 100 µM (inactive)
GI50 [33]: > 100 µM (inactive)
GI50 [34]: > 100 µM (inactive)
GI50 [36]: > 100 µM (inactive)
GI50 [37]: > 100 µM (inactive)
GI50 [38]: > 100 µM (inactive)
GI50 [39]: > 100 µM (inactive)
GI50 [40]: > 100 µM (inactive)
GI50 [41]: > 100 µM (inactive)
GI50 [42]: > 100 µM (inactive)
GI50 [43]: > 100 µM (inactive)
GI50 [44]: > 100 µM (inactive)
GI50 [45]: > 100 µM (inactive)
GI50 [46]: > 100 µM (inactive)
GI50 [47]: > 100 µM (inactive)
GI50 [48]: > 100 µM (inactive)
GI50 [49]: > 100 µM (inactive)
GI50 [50]: > 100 µM (inactive)
GI50 [51]: > 100 µM (inactive)
GI50 [59]: > 100 µM (inactive)
GI50 [52]: > 100 µM (inactive)
GI50 [53]: > 100 µM (inactive)
GI50 [54]: > 100 µM (inactive)
GI50 [55]: > 100 µM (inactive)
GI50 [56]: > 100 µM (inactive)
GI50 [57]: > 100 µM (inactive)

Reference: ChEMBL document CHEMBL1201862, “PubChem BioAssay data set” (2004)
